Measured values reported in patent US9969716B2, “Indole derivatives as modulators of methyl modifying enzymes, compositions and uses thereof” (Constellation Pharmaceuticals, Inc., priority 2013, dated 2018).

Columns and labels:
[1] = test system: H3K27me3 mark in HeLa cells; assay: H3K27me3 Alpha Hela Assay (AlphaLISA); assay type: cell-based; settings: Homo sapiens, 72 hrs, read-out: EZH2_Cell_H3K27me3_Alpha_HeLa (EC50_K27me3)
Description: Ten different doses of each test compound (in a series of 3-fold dilutions) were plated in duplicate 384-well tissue culture treated plates (Catalog #781080; Greiner Bio One; Monroe, N.C.). Hela cells grown in culture were trypsinized and counted using a Countess® cell counter (Catalog # C10281; Life Technologies, Grand Island, N.Y.). Cell were diluted to 67,000 cells per mL in 10% DMEM (Catalog #10569-010 Life Technologies, Grand Island, N.Y.) and 15 μL (1,000 cells) were plated into each well using the Biotek MicroFlo™ Select Dispenser (BioTek Instruments, Inc. Vermont, USA),) of the 384-well plate. Plates were incubated at 37° C./5% CO2 for 72 hrs. One of the duplicate plates was processed for HeLa assay and the other for viability.
To the plate processed for AlphaLISA was added 5 μL per well Cell-Histone Lysis buffer (1λ) (Catalog # AL009F1 Perkin Elmer; Waltham, Mass.) and the plate was incubated at RT for 30 minutes on a plate shaker with low speed (Model#4625-Q Thermo Scientific; Waltham, Mass.). Then, 10 μL per well Histone Extraction buffer (catalog # AL009F2; Perkin Elmer; Waltham, Mass.) was added and the plate further incubated at RT for 20 min on plate shaker with low speed. To each well was then added 10 μL per well of a 5× mix of anti-K27me3 acceptor beads plus Biotinylated anti-Histone H3 (C-ter) Antibody (diluted to 3 nM final) (Catalog #AL118 Perkin Elmer; Waltham, Mass.). Dilution of the acceptor beads and then anti-Histone H3 was with 1× Histone Detection buffer (Catalog # AL009F3 Perkin Elmer; Waltham, Mass.) which was produced diluted from the 10× stock provided. The plate was sealed with an aluminum plate sealer and incubated at 23° C. for 60 min. We then added 10 μL 5× solution of Streptavidin Donor beads (Catalog #6760002 Perkin Elmer; Waltham, Mass.) (20 μg/mL final in 1× Histone Detection Buffer), sealed the plate with Aluminum plate sealer and incubated at 23° C. for 30 min. The plates were then read using an EnVision-Alpha Reader (model #2104 Perkin Elmer; Waltham, Mass.).
Data from both assays was analyzed using Assay Assistant (Constellation Pharmaceuticals In-house product) and Activity Base (IDBS Ltd, Surrey, UK) template. Data files were imported to Assay Assistant and assay conditions were specified. A unique Analysis ID was created and the data files exported to Activity Base. An analysis template was created on Activity Base to measure dose-dependent inhibition of H3K27me3 mark and cell viability respectively. Readout of DMSO wells were used to normalize the data. Resulting curves were fitted using Activity base software Model 205 (IDBS Ltd, Surrey, UK). The data was checked for quality, validated and integrated in excel format using SARview (IDBS Ltd, Surrey, UK).

[2] = molecular target: EZH2 (Homo sapiens, UniProt Q15910); assay: EZH2 assay (rPRC2, 3H SAM methyl transfer to biotinylated oligonucleosomes, FlashPlate); assay type: biochemical
Description: EZH2 Assay: Assays were carried out by mixing rPRC2 together with biotinylated oligonucleosome substrates in the presence of the radio-labeled enzyme co-factor, S-adenosyl-L-methionine (^3H SAM) (Perkin Elmer) and monitoring the enzymatically mediated transfer of tritiated methyl groups from ^3H SAM to histone lysine residues. The amount of resulting tritiated methyl histone product was measured by first capturing the biotinylated oligonucleosomes in streptavidin (SAV) coated FlashPlates (Perkin Elmer), followed by a wash step to remove un-reacted ^3H SAM, and then counting on a TopCount NXT 384 well plate scintillation counter (Perkin Elmer). The final assay conditions for EZH2 were as follows: 50 mM Tris Buffer pH 8.5, 1 mM DTT, 69 μM Brij-35 detergent, 5.0 mM MgCl2, 0.1 mg/mL BSA, 0.2 μM ^3H SAM, 0.2 μM biotinylated oligonucleosomes, 3.6 μM H3K27me3 peptide and 2 nM EZH2.
A 12.5 μL volume of the HMT enzyme, H3K27me3 peptide and oligonucleosome substrate in assay buffer was added to each well of the assay plate using a Multidrop Combi (ThermoFisher). Compounds were pre-incubated with the enzyme for 20 min, followed by initiation of the methyltransferase reaction by addition of 12.5 μL of ^3H SAM in assay buffer (final volume=25 μL). The final concentrations of compounds ranged from a top default concentration of 80 μM down to 0.16 μM in ten 2-fold dilution steps. Reactions were carried out for 60 minutes and quenched with 20 μL per well of 1.96 mM SAH, 50 mM Tris pH 8.5, 200 mM EDTA. Stopped reactions were transferred to SAV coated Flashplates (Perkin Elmer), incubated for 120 min, washed with a plate washer, and then read on the TopCount NXT (1.0 min/well) to measure the amount of methyl histone product formed during the reaction.

EZH2, sequence (Q15910 whole entry): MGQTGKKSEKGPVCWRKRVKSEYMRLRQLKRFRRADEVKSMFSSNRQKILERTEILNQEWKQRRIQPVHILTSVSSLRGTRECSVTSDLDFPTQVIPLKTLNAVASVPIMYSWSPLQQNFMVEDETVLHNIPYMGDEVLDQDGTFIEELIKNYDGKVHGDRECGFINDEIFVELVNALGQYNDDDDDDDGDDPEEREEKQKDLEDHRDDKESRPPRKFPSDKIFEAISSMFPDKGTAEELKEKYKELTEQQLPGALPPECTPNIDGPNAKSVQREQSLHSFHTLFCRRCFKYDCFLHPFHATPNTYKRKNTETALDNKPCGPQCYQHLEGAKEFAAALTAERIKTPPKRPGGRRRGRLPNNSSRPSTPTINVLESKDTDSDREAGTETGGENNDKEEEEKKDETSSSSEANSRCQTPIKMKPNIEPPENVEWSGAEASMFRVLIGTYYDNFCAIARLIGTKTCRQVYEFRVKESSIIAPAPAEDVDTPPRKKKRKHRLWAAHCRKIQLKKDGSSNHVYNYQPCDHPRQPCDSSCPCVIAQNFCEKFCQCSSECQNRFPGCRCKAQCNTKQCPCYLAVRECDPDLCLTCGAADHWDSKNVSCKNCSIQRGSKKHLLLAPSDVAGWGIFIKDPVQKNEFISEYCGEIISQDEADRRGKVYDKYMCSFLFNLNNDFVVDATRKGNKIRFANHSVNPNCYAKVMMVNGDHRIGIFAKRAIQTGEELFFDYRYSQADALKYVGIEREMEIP
EZH2, sequence (O75530 whole entry partner): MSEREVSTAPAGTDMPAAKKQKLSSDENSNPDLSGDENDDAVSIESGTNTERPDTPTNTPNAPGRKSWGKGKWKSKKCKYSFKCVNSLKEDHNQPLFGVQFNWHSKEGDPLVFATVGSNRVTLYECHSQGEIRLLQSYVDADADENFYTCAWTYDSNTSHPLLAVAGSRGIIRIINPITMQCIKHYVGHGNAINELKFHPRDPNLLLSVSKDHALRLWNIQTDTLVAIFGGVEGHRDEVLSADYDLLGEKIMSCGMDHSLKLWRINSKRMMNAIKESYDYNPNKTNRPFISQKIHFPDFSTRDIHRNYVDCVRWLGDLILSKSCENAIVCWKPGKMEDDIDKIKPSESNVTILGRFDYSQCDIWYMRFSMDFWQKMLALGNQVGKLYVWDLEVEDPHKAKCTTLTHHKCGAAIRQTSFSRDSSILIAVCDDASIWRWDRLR
EZH2, sequence (Q15022 whole entry partner): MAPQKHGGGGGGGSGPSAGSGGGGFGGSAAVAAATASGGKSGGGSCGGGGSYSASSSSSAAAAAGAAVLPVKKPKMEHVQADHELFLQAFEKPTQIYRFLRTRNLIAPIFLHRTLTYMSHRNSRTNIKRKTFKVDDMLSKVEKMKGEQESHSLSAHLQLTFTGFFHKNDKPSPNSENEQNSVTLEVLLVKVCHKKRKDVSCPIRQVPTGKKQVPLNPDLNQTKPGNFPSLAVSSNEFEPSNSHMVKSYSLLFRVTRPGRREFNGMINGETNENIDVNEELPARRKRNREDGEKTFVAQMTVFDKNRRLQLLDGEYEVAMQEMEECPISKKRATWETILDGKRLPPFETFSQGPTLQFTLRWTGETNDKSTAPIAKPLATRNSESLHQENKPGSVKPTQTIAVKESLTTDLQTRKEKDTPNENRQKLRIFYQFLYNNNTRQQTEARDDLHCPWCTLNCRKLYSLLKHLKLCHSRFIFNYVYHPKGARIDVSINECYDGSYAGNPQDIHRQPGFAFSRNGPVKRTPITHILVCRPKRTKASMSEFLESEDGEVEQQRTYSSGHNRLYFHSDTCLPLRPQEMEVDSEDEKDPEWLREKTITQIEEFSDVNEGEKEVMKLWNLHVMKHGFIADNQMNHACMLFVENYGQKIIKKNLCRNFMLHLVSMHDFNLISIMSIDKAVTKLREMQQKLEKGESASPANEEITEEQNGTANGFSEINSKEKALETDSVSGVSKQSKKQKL

SMILES	EC50 [1]	IC50 [2]
CCC(C)(C)C(=O)N1CCC([C@@H](C)n2c(C)c(C(=O)NCc3c(OC)cc(C)[nH]c3=O)c3ccccc32)CC1 [Compound 233]	< 400 nM	< 100 nM
COc1cc(C)[nH]c(=O)c1CNC(=O)c1c(C)n([C@H](C)C2CCN(C(=O)C3CCCC3)CC2)c2ccccc12 [Compound 235]	400 to 2000 nM	< 100 nM
COc1cc(C)[nH]c(=O)c1CNC(=O)c1c(C)n([C@H](C)C2CCN(C(=O)C(C)(C)OC)CC2)c2ccccc12 [Compound 236]	< 400 nM	< 100 nM
COc1cc(C)[nH]c(=O)c1CNC(=O)c1c(C)n([C@H](C)C2CCN(C(=O)Cn3ccnc3C)CC2)c2ccccc12 [Compound 237]	> 2000 nM	< 100 nM
COc1cc(C)[nH]c(=O)c1CNC(=O)c1c(C)n([C@H](C)C2CCN(Cc3cnn(C)c3)CC2)c2ccccc12 [Compound 238]	> 2000 nM	< 100 nM
COc1cc(C)[nH]c(=O)c1CNC(=O)c1c(C)n([C@H](C)C2CCN(Cc3nccn3C)CC2)c2ccccc12 [Compound 239]	400 to 2000 nM	< 100 nM
COc1cc(C)[nH]c(=O)c1CNC(=O)c1c(C)n([C@H](C)C2CCN(Cc3cncnc3)CC2)c2ccccc12 [Compound 240]	400 to 2000 nM	< 100 nM
COc1cc(C)[nH]c(=O)c1CNC(=O)c1c(C)n([C@H](C)C2CCN(Cc3ncccn3)CC2)c2ccccc12 [Compound 241]	400 to 2000 nM	< 100 nM
COc1cc(C)[nH]c(=O)c1CNC(=O)c1c(C)n([C@H](C)C2CCN(C(=O)C3(F)CCN(C)CC3)CC2)c2ccccc12 [Compound 242]	400 to 2000 nM	< 100 nM
COc1cc(C)[nH]c(=O)c1CNC(=O)c1c(C)n([C@H](C)C2CCN(C(=O)C3CCN(C)CC3)CC2)c2ccccc12 [Compound 243]	> 2000 nM	< 100 nM
COc1cc(C)[nH]c(=O)c1CNC(=O)c1c(C)n([C@H](C)C2CCN(Cc3cccnc3)CC2)c2ccccc12 [Compound 244]	400 to 2000 nM	< 100 nM
COc1cc(C)[nH]c(=O)c1CNC(=O)c1c(C)n([C@H](C)C2CCN(Cc3ccncc3)CC2)c2ccccc12 [Compound 245]	< 400 nM	< 100 nM
COc1cc(C)[nH]c(=O)c1CNC(=O)c1c(C)n([C@H](C)C2CCN(Cc3ccnc(C)c3)CC2)c2ccccc12 [Compound 246]	< 400 nM	< 100 nM
COc1cc(C)[nH]c(=O)c1CNC(=O)c1c(C)n([C@H](C)C2CCN(C(=O)Cc3cc(C)no3)CC2)c2ccccc12 [Compound 247]	400 to 2000 nM	< 100 nM
COc1cc(C)[nH]c(=O)c1CNC(=O)c1c(C)n([C@H](C)C2CCN(C(=O)N3CCC(F)(F)C3)CC2)c2ccccc12 [Compound 248]	400 to 2000 nM	< 100 nM
COc1cc(C)[nH]c(=O)c1CNC(=O)c1c(C)n([C@H](C)C2CCN(C(=O)N3CCC(F)(F)CC3)CC2)c2ccccc12 [Compound 249]	400 to 2000 nM	< 100 nM
COc1cc(C)[nH]c(=O)c1CNC(=O)c1c(C)n([C@H](C)C2CCN(Cc3ccc(C#N)cn3)CC2)c2ccccc12 [Compound 250]	< 400 nM	< 100 nM
COc1cc(C)[nH]c(=O)c1CNC(=O)c1c(C)n([C@H](C)C2CCN(Cc3ccnc(C(F)(F)F)c3)CC2)c2ccccc12 [Compound 251]	< 400 nM	< 100 nM
COc1cc(C)[nH]c(=O)c1CNC(=O)c1c(C)n([C@H](C)C2CCN(Cc3cc(C)nc(C)c3)CC2)c2ccccc12 [Compound 252]	< 400 nM	< 100 nM

SMILES	EC50 [1]	IC50 [2]
COc1cc(C)[nH]c(=O)c1CNC(=O)c1c(C)n([C@H](C)C2CCN(C(C)(C)C(C)=O)CC2)c2ccccc12 [Compound 253]	< 400 nM	< 100 nM
COc1cc(C)[nH]c(=O)c1CNC(=O)c1c(C)n([C@H](C)C2CCN(C3CC3)CC2)c2ccccc12 [Compound 254]	< 400 nM	< 100 nM
COc1cc(C)[nH]c(=O)c1CNC(=O)c1c(C)n([C@H](C)C2CCN(Cc3ccn(C)n3)CC2)c2ccccc12 [Compound 255]	> 2000 nM	< 100 nM
COc1cc(C)[nH]c(=O)c1CNC(=O)c1c(C)n([C@H](C)C2CCN([S+]([O-])C(C)(C)C)CC2)c2ccccc12 (some centres unmarked) [Compound 256]	< 400 nM	< 100 nM
COc1cc(C)[nH]c(=O)c1CNC(=O)c1c(C)n([C@H](C)C2CCN(Cc3cncc(F)c3)CC2)c2ccccc12 [Compound 257]	< 400 nM	< 100 nM
COc1cc(C)[nH]c(=O)c1CNC(=O)c1c(C)n([C@H](C)C2CCN(S(=O)(=O)c3cccnc3)CC2)c2ccccc12 [Compound 258]	400 to 2000 nM	< 100 nM
COc1cc(C)[nH]c(=O)c1CNC(=O)c1c(C)n([C@H](C)C2CCN(Cc3ccncn3)CC2)c2ccccc12 [Compound 259]	< 400 nM	< 100 nM
COc1cc(C)[nH]c(=O)c1CNC(=O)c1c(C)n([C@H](C)C2CCN(Cc3ccncc3F)CC2)c2ccccc12 [Compound 260]	< 400 nM	< 100 nM
COc1cc(C)[nH]c(=O)c1CNC(=O)c1c(C)n([C@H](C)C2CCN(Cc3cnccn3)CC2)c2ccccc12 [Compound 261]	< 400 nM	< 100 nM
COC(C)(C)CN1CCC([C@@H](C)n2c(C)c(C(=O)NCc3c(Cl)cc(C)[nH]c3=O)c3ccccc32)CC1 [Compound 262]	< 400 nM	< 100 nM
COc1cc(C)[nH]c(=O)c1CNC(=O)c1c(C)n([C@H](C)C2CCN(Cc3cccc(F)c3)CC2)c2ccccc12 [Compound 263]	< 400 nM	< 100 nM
COc1cc(C)[nH]c(=O)c1CNC(=O)c1c(C)n([C@H](C)C2CCN(Cc3ccnc(C#N)c3)CC2)c2ccccc12 [Compound 264]	< 400 nM	< 100 nM
COc1cc(C)[nH]c(=O)c1CNC(=O)c1c(C)n([C@H](C)C2CCN(C(=O)C3(F)CCC3)CC2)c2ccccc12 [Compound 265]	< 400 nM	< 100 nM
COc1cc(C)[nH]c(=O)c1CNC(=O)c1c(C)n([C@H](C)C2CCN(Cc3cc(C)ncn3)CC2)c2ccccc12 [Compound 266]	< 400 nM	< 100 nM
COc1cc(C)[nH]c(=O)c1CNC(=O)c1c(C)n([C@H](C)C2CCN(Cc3cccc(C)n3)CC2)c2ccccc12 [Compound 267]	< 400 nM	< 100 nM
COc1cc(C)[nH]c(=O)c1CNC(=O)c1c(C)n([C@H](C)C2CCN(Cc3cnccc3C#N)CC2)c2ccccc12 [Compound 268]	< 400 nM	< 100 nM
COc1cc(C)[nH]c(=O)c1CNC(=O)c1c(C)n([C@H](C)C2CCN(C(=O)C3CCOCC3)CC2)c2ccccc12 [Compound 269]	400 to 2000 nM	< 100 nM
COc1cc(C)[nH]c(=O)c1CNC(=O)c1c(C)n([C@H](C)C2CCN(C(=O)C3CCOC3)CC2)c2ccccc12 (some centres unmarked) [Compound 270]	> 2000 nM	< 100 nM
